Active and inactive are the calls of the source. The rule behind the calls is not given here.
Experiments:
[1] = tested on: Staphylococcus aureus; experiment: Potentiation of berberin induced antibacterial activity against Staphylococcus aureus SA1199 assessed as berberin MIC at 200 uM (reference value: 238 microM); type: functional
[2] = tested on: Staphylococcus aureus; experiment: Antibacterial activity against Staphylococcus aureus SA1199 at 201.4 to 402.8 uM after 18 hrs by CLSI method; type: functional, organism-based
[3] = tested on: Staphylococcus aureus; experiment: Potentiation of berberin induced antibacterial activity against Staphylococcus aureus SA1199 assessed as berberin MIC at 201.4 uM (reference value: 238 microM); type: functional

| MIC [1] [µM] | MIC [3] [µM] | Compound | Activity [2] |
| --- | --- | --- | --- |
| 119 |  | O=C(/C=C/C=C/c1ccc2c(c1)OCO2)N1CCCCC1 [PIPERINE] |  |
|  | 179 | COc1ccc(-c2oc3c(C)c(OC)c(C)c(OC)c3c(=O)c2O)cc1O | inactive |

Reference: ChEMBL document CHEMBL4138144, “Biochemometrics to Identify Synergists and Additives from Botanical Medicines: A Case Study with Hydrastis canadensis (Goldenseal)” (J Nat Prod, 2018)
